Test system: Influenza A virus
Assay: Antiviral activity against Oseltamivir-resistant Influenza A virus
Assay type: functional, organism-based

Cc1cc(=O)oc2c1ccc1oc(C(=O)c3ccccc3)c(-c3ccccc3)c12
EC50: 21 nM
